# According to publication PMC7519686, “Engineering and application of a biosensor with focused ligand specificity” (Nature Communications, 2020):
# pKd: −log10 of the molar value.
# Tests used:
# Format in all cases: binding
# LysG-A219L [1] = molecular target: T1, LysG-A219L (Corynebacterium glutamicum, UniProt P94632, A219L); test: ITC with purified protein (fixed stoichiometry of two ligands per tetramer)
# LysG [2] = molecular target: T2, LysG (Corynebacterium glutamicum, UniProt P94632); test: X-ray co-crystal structure ([…] Å) and ITC; parameters: full-length LysG
# T2 sequence (P94632 1-290): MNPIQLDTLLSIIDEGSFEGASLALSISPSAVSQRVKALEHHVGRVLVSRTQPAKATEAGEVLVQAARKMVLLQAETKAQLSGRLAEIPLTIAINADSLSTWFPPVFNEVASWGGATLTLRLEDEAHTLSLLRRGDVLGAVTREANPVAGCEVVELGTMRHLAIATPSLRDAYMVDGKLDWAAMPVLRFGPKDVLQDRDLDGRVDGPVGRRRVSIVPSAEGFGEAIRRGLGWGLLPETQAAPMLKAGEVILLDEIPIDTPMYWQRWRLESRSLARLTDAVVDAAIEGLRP
# LysG [3] = molecular target: T2, LysG; test: ITC with purified protein
# LysG-A219L [4] = molecular target: T1, LysG-A219L; test: ITC with purified protein
# LysG [5] = molecular target: T2, LysG; test: ITC with purified protein (fixed stoichiometry of two ligands per tetramer)
smiles,measurement,setting,value
N=C(N)NCCC[C@H](N)C(=O)O [L-arginine],pKd,LysG-A219L [1],2.02
same,pKd,LysG [2],2.94
N[C@@H](Cc1c[nH]cn1)C(=O)O [L-histidine],Kd,LysG [3],16 µM
same,pKd,LysG-A219L [4],4.68
NCCCC[C@H](N)C(=O)O [L-lysine],Kd,LysG [5],3.29 mM
